Results published in ChEMBL document CHEMBL5532698, “2,3-Dihydroquinazolin-4(1H)-ones and quinazolin-4(3H)-ones as broad-spectrum cytotoxic agents and their impact on tubulin polymerisation” (RSC Med Chem, 2024).
Each block holds one compound with its values, some of them ahead of it. The source made the active and inactive calls. The rule behind the calls is not given here.

What was measured:
[1] = test system: HT-29; experiment: Antiproliferative activity against human HT-29 cells assessed as cell growth inhibition incubated for 72 hrs by MTT assay; assay type: functional
[2] = test system: U-87 MG; experiment: Antiproliferative activity against human U87 cells assessed as cell growth inhibition incubated for 72 hrs by MTT assay; assay type: functional, U-87MG ATCC
[3] = test system: MCF7; experiment: Antiproliferative activity against human MCF7 cells assessed as cell growth inhibition incubated for 72 hrs by MTT assay; assay type: functional
[4] = test system: A2780; experiment: Antiproliferative activity against human A2780 cells assessed as cell growth inhibition incubated for 72 hrs by MTT assay; assay type: functional
[5] = test system: NCI-H460; experiment: Antiproliferative activity against human NCI-H460 cells assessed as cell growth inhibition incubated for 72 hrs by MTT assay; assay type: functional
[6] = test system: A-431; experiment: Antiproliferative activity against human A-431 cells assessed as cell growth inhibition incubated for 72 hrs by MTT assay; assay type: functional
[7] = test system: DU-145; experiment: Antiproliferative activity against human DU-145 cells assessed as cell growth inhibition incubated for 72 hrs by MTT assay; assay type: functional
[8] = test system: BE(2)-C; experiment: Antiproliferative activity against human BE2C cells assessed as cell growth inhibition incubated for 72 hrs by MTT assay; assay type: functional
[9] = Antiproliferative activity against human SJG2 cells assessed as cell growth inhibition incubated for 72 hrs by MTT assay; assay type: functional; conditions: SJ-G2
[10] = test system: MIA PaCa-2; experiment: Antiproliferative activity against human MIA PaCa-2 cells assessed as cell growth inhibition incubated for 72 hrs by MTT assay; assay type: functional
[11] = Cytotoxicity against human MCF-10A cells assessed as cell growth inhibition incubated for 72 hrs by MTT assay; assay type: toxicity, cell-based
[12] = test system: HT-29; experiment: Antiproliferative activity against human HT-29 cells assessed as cell growth inhibition at 25 uM incubated for 72 hrs by MTT assay relative to control; assay type: functional
[13] = test system: U-87 MG; experiment: Antiproliferative activity against human U87 cells assessed as cell growth inhibition at 25 uM incubated for 72 hrs by MTT assay relative to control; assay type: functional, U-87MG ATCC
[14] = test system: MCF7; experiment: Antiproliferative activity against human MCF7 cells assessed as cell growth inhibition at 25 uM incubated for 72 hrs by MTT assay relative to control; assay type: functional
[15] = test system: A2780; experiment: Antiproliferative activity against human A2780 cells assessed as cell growth inhibition at 25 uM incubated for 72 hrs by MTT assay relative to control; assay type: functional
[16] = test system: NCI-H460; experiment: Antiproliferative activity against human NCI-H460 cells assessed as cell growth inhibition at 25 uM incubated for 72 hrs by MTT assay relative to control; assay type: functional
[17] = test system: A-431; experiment: Antiproliferative activity against human A-431 cells assessed as cell growth inhibition at 25 uM incubated for 72 hrs by MTT assay relative to control; assay type: functional
[18] = test system: DU-145; experiment: Antiproliferative activity against human DU-145 cells assessed as cell growth inhibition at 25 uM incubated for 72 hrs by MTT assay relative to control; assay type: functional
[19] = test system: BE(2)-C; experiment: Antiproliferative activity against human BE2C cells assessed as cell growth inhibition at 25 uM incubated for 72 hrs by MTT assay relative to control; assay type: functional
[20] = Antiproliferative activity against human SJG2 cells assessed as cell growth inhibition at 25 uM incubated for 72 hrs by MTT assay relative to control; assay type: functional; conditions: SJ-G2
[21] = test system: MIA PaCa-2; experiment: Antiproliferative activity against human MIA PaCa-2 cells assessed as cell growth inhibition at 25 uM incubated for 72 hrs by MTT assay relative to control; assay type: functional
[22] = Cytotoxicity against human MCF-10A cells assessed as cell growth inhibition at 25 uM incubated for 72 hrs by MTT assay relative to control; assay type: toxicity, cell-based
[23] = test system: MIA PaCa-2; experiment: Induction of G2/M phase cell cycle arrest in human MIA PaCa-2 cells assessed as sub G1 phase cells at 1.0 uM incubated for 24 hrs by PI/RNase staining based analysis (reference value: 4 +/- 2%); assay type: functional
[24] = test system: MIA PaCa-2; experiment: Induction of G2/M phase cell cycle arrest in human MIA PaCa-2 cells assessed as G1 phase cells at 1.0 uM incubated for 24 hrs by PI/RNase staining based analysis (reference value: 66 +/- 2%); assay type: functional
[25] = test system: MIA PaCa-2; experiment: Induction of G2/M phase cell cycle arrest in human MIA PaCa-2 cells assessed as S phase cells at 1.0 uM incubated for 24 hrs by PI/RNase staining based analysis (reference value: 11 +/- 1%); assay type: functional
[26] = test system: MIA PaCa-2; experiment: Induction of G2/M phase cell cycle arrest in human MIA PaCa-2 cells at 1.0 uM incubated for 24 hrs by PI/RNase staining based analysis (reference value: 20 +/- 1%); assay type: functional
[27] = test system: MIA PaCa-2; experiment: Induction of G2/M phase cell cycle arrest in human MIA PaCa-2 cells assessed as sub G1 phase cells at 5 uM incubated for 24 hrs by PI/RNase staining based analysis (reference value: 4 +/- 2%); assay type: functional
[28] = test system: MIA PaCa-2; experiment: Induction of G2/M phase cell cycle arrest in human MIA PaCa-2 cells assessed as G1 phase cells at 5 uM incubated for 24 hrs by PI/RNase staining based analysis (reference value: 66 +/- 2%); assay type: functional
[29] = test system: MIA PaCa-2; experiment: Induction of G2/M phase cell cycle arrest in human MIA PaCa-2 cells assessed as S phase cells at 5 uM incubated for 24 hrs by PI/RNase staining based analysis (reference value: 11 +/- 1%); assay type: functional
[30] = test system: MIA PaCa-2; experiment: Induction of G2/M phase cell cycle arrest in human MIA PaCa-2 cells at 5 uM incubated for 24 hrs by PI/RNase staining based analysis (reference value: 20 +/- 1%); assay type: functional
[31] = molecular target: Tubulin (Homo sapiens) (UniProt P68371+Q9H4B7+P0DPH7+P68366+Q13509+Q71U36+P04350+Q3ZCM7+P07437+P68363+Q9BQE3+Q6PEY2+Q13885+Q9BVA1+Q9BUF5); experiment: Inhibition of tubulin (unknown origin) polymerization assessed as reduction microtubule formation at 10 uM by fluorometric analysis; assay type: protein-complex assay
[32] = test system: MIA PaCa-2; experiment: Induction of G2/M phase cell cycle arrest in human MIA PaCa-2 cells assessed as sub G1 phase cells at 0.1 uM incubated for 24 hrs by PI/RNase staining based analysis (reference value: 4 +/- 2%); assay type: functional
[33] = test system: MIA PaCa-2; experiment: Induction of G2/M phase cell cycle arrest in human MIA PaCa-2 cells assessed as G1 phase cells at 0.1 uM incubated for 24 hrs by PI/RNase staining based analysis (reference value: 66 +/- 2%); assay type: functional
[34] = test system: MIA PaCa-2; experiment: Induction of G2/M phase cell cycle arrest in human MIA PaCa-2 cells assessed as S phase cells at 0.1 uM incubated for 24 hrs by PI/RNase staining based analysis (reference value: 11 +/- 1%); assay type: functional
[35] = test system: MIA PaCa-2; experiment: Induction of G2/M phase cell cycle arrest in human MIA PaCa-2 cells at 0.1 uM incubated for 24 hrs by PI/RNase staining based analysis (reference value: 20 +/- 1%); assay type: functional
[36] = test system: MIA PaCa-2; experiment: Induction of G2/M phase cell cycle arrest in human MIA PaCa-2 cells assessed as sub G1 phase cells at 0.5 uM incubated for 24 hrs by PI/RNase staining based analysis (reference value: 4 +/- 2%); assay type: functional
[37] = test system: MIA PaCa-2; experiment: Induction of G2/M phase cell cycle arrest in human MIA PaCa-2 cells assessed as G1 phase cells at 0.5 uM incubated for 24 hrs by PI/RNase staining based analysis (reference value: 66 +/- 2%); assay type: functional
[38] = test system: MIA PaCa-2; experiment: Induction of G2/M phase cell cycle arrest in human MIA PaCa-2 cells assessed as S phase cells at 0.5 uM incubated for 24 hrs by PI/RNase staining based analysis (reference value: 11 +/- 1%); assay type: functional
[39] = test system: MIA PaCa-2; experiment: Induction of G2/M phase cell cycle arrest in human MIA PaCa-2 cells at 0.5 uM incubated for 24 hrs by PI/RNase staining based analysis (reference value: 20 +/- 1%); assay type: functional
[40] = test system: HeLa; experiment: Antiproliferative activity against human HeLa cells assessed as reduction in cell viability incubated for 48 hrs by MTT assay; assay type: functional, cell-based
[41] = test system: HCT-116; experiment: Antiproliferative activity against human HCT-116 cells assessed as reduction in cell viability incubated for 48 hrs by MTT assay; assay type: functional, cell-based; conditions: HCT-116, 48 h
[42] = test system: A549; experiment: Antiproliferative activity against human A549 cells assessed as reduction in cell viability incubated for 48 hrs by MTT assay; assay type: functional, cell-based; conditions: A549, 48 h
[43] = test system: HepG2; experiment: Antiproliferative activity against human HepG2 cells assessed as reduction in cell viability incubated for 48 hrs by MTT assay; assay type: functional, cell-based; conditions: HepG2, 48 h
[44] = test system: WRL68; experiment: Antiproliferative activity against human WRL68 cells assessed as reduction in cell viability incubated for 48 hrs by MTT assay; assay type: functional, cell-based; conditions: WRL68, 48 h

GI50 [1]: 260 nM
GI50 [2]: 1400 nM
GI50 [3]: 350 nM
GI50 [4]: 330 nM
GI50 [5]: 420 nM
GI50 [6]: 330 nM
GI50 [7]: 900 nM
GI50 [10]: 370 nM
inhibition [31]: Active
SMILES: COc1ccccc1/C=C/c1nc2ccccc2c(=O)[nH]1
GI50 [8]: 310 nM
GI50 [9]: 790 nM
GI50 at 72 h [11]: 560 nM
inhibition at 25 µM [12]: > 100%
inhibition at 25 µM [13]: > 100%
inhibition at 25 µM [14]: > 100%
inhibition at 25 µM [15]: > 100%
inhibition at 25 µM [16]: > 100%
inhibition at 25 µM [17]: > 100%
inhibition at 25 µM [18]: > 100%
inhibition at 25 µM [19]: > 100%
inhibition at 25 µM [20]: > 100%
inhibition at 25 µM [21]: > 100%
inhibition at 72 h, 25 µM [22]: > 100%
Activity [23]: 5%
Activity [24]: 56%
Activity [25]: 12%
Activity [26]: 27%
Activity [27]: 6%
Activity [28]: 10%
Activity [29]: 6%
Activity [30]: 78%

SMILES: COC(=O)Nc1nc2cc(C(=O)c3cccs3)ccc2[nH]1 [NOCODAZOLE]
Activity [32]: 21%
Activity [33]: 34%
Activity [34]: 8%
Activity [35]: 37%
Activity [36]: 14%
Activity [37]: 16%
Activity [38]: 9%
Activity [39]: 60%
inhibition [31]: Active
IC50 [40]: 2220 nM
IC50 [41]: 1810 nM
IC50 [42]: 5090 nM
IC50 [43]: 5080 nM
IC50 [44]: 7560 nM
